Data: ChEMBL document CHEMBL6153087, “Emoquine-1: A Hybrid Molecule Efficient against Multidrug-Resistant Plasmodium Parasites, Including the Artemisinin-Resistant Quiescent Stage, and Also Active In Vivo” (J Med Chem, 2025)
Activity calls are given as the source filed them. The rule behind the calls is not given here.

Key:
[1] = tested on: Heme; assay: Inhibition of heme polymerization in acetate buffer at pH 5 assessed as reduction in beta-hematin formation at 15 equiv incubated for 18 hrs by infrared spectroscopic analysis relative to control
[2] = tested on: Plasmodium falciparum; assay: Antiplasmodial activity against artemisinin-resistant Plasmodium falciparum F32 assessed as inhibition of parasite growth incubated for 48 hrs of SYBR green fluorescence-based method; type: functional, organism-based; conditions: F32, 48 h
[3] = tested on: Plasmodium falciparum; assay: Antiplasmodial activity against artemisinin-sensitive Plasmodium falciparum F32 assessed as inhibition of parasite growth incubated for 48 hrs of SYBR green fluorescence-based method; type: functional, organism-based; conditions: F32, 48 h
[4] = tested on: Plasmodium falciparum; assay: Antiplasmodial activity against chloroquine-resistant Plasmodium falciparum clinical isolate IPC8262 assessed as inhibition of parasite growth incubated for 48 hrs of SYBR green fluorescence-based method; type: functional, organism-based
[5] = tested on: Plasmodium falciparum; assay: Antiplasmodial activity against chloroquine-resistant Plasmodium falciparum clinical isolate IPC8461 assessed as inhibition of parasite growth incubated for 48 hrs of SYBR green fluorescence-based method; type: functional, organism-based
[6] = tested on: Plasmodium falciparum; assay: Antiplasmodial activity against atovaquone-resistant Plasmodium falciparum clinical isolate Q120 assessed as inhibition of parasite growth incubated for 48 hrs of SYBR green fluorescence-based method; type: functional, organism-based
[7] = Cytotoxicity against African green monkey Vero cells assessed as cell metabolic activity incubated for 48 hrs by MTT assay; type: toxicity, cell-based; conditions: chlorocebus sabaeus
[8] = Selectivity index, ratio of CC50 for cytotoxicity against African green monkey Vero cells to IC50 for antiplasmodial activity against artemisinin-resistant Plasmodium falciparum F32; type: toxicity, cell-based; conditions: read-out: Ratio CC50/IC50
[9] = tested on: Plasmodium falciparum; assay: (§1) Antiplasmodial activity against synchronized ring stage DHA-induced quiescent artemisinin-resistant Plasmodium falciparum F32 assessed as decrease in parasite recrudescence at 1 uM pretreated with dihydroartemisinin for 6 hrs followed by compound administration for 48 hrs in presence of dihydroartemisinin by quiescent-stage survival assay; type: functional, organism-based
[10] = tested on: Heme; assay: Inhibition of heme polymerization in acetate buffer at pH 5 assessed as reduction in beta-hematin formation at 2.0 molequiv incubated for 18 hrs by infrared spectroscopic analysis relative to control
[11] = tested on: Heme; assay: Inhibition of heme polymerization in acetate buffer at pH 5 assessed as reduction in beta-hematin formation at 10 molequiv incubated for 18 hrs by infrared spectroscopic analysis
[12] = tested on: Plasmodium falciparum; assay: Antiplasmodial activity against synchronized ring stage artemisinin-resistant Plasmodium falciparum F32 assessed as number of days required to reach 3% initial parasitemia by measuring median recrudescence time at 18 uM incubated for 48 hrs by recrudescence assay; type: functional
[13] = tested on: Plasmodium falciparum; assay: Antiplasmodial activity against synchronized ring stage artemisinin-sensitive Plasmodium falciparum F32 assessed as number of days required to reach 3% initial parasitemia by measuring median recrudescence time at 18 uM incubated for 48 hrs by recrudescence assay; type: functional
[14] = tested on: Plasmodium vinckei petteri; assay: Antiplasmodial activity Plasmodium vinckei petteri infected in female Swiss albino mouse model assessed as reduction in parasitemia administered intraperitoneally for 4 days and measured on day 5; type: functional; conditions: 120 h, route ip, time 5 day
[15] = tested on: Plasmodium vinckei petteri; assay: Antiplasmodial activity Plasmodium vinckei petteri infected in female Swiss albino mouse model assessed as reduction in parasitemia administered orally for 4 days and measured on day 5; type: functional; conditions: 120 h, route po, time 5 day
[16] = tested on: Heme; assay: Inhibition of heme polymerization in acetate buffer at pH 5 assessed as reduction in beta-hematin formation at 5 equiv incubated for 18 hrs by infrared spectroscopic analysis relative to control
[17] = tested on: Plasmodium falciparum; assay: Antiplasmodial activity against synchronized ring stage artemisinin-resistant Plasmodium falciparum F32 assessed as decrease in parasite recrudescence by measuring time required for parasites to reach initial parasitemia at 200 nM incubated for 48 hrs by recrudescence assay; type: functional
[18] = tested on: Plasmodium falciparum; assay: as §1, with “recrudescence by measuring time required for parasites to reach initial parasitemia” for “recrudescence”, “200 nM” for “1 uM”; type: functional
[19] = tested on: Plasmodium falciparum; assay: Antiplasmodial activity against synchronized ring stage artemisinin-resistant Plasmodium falciparum F32 assessed as number of days required to reach 3% initial parasitemia by measuring median recrudescence time at 0.5 uM incubated for 48 hrs by recrudescence assay; type: functional
[20] = tested on: Plasmodium falciparum; assay: Antiplasmodial activity against synchronized ring stage artemisinin-sensitive Plasmodium falciparum F32 assessed as number of days required to reach 3% initial parasitemia by measuring median recrudescence time at 1 uM incubated for 48 hrs by recrudescence assay; type: functional
[21] = tested on: Plasmodium falciparum; assay: Antiplasmodial activity against synchronized ring stage artemisinin-sensitive Plasmodium falciparum F32 assessed as number of days required to reach 3% initial parasitemia by measuring median recrudescence time at 0.5 uM incubated for 48 hrs by recrudescence assay; type: functional
[22] = tested on: Plasmodium falciparum; assay: as §1, with “recrudescence by measuring time required for parasites to reach initial parasitemia” for “recrudescence”; type: functional
[23] = tested on: Plasmodium vinckei petteri; assay: Antiplasmodial activity Plasmodium vinckei petteri infected in female Swiss mouse model assessed as reduction in parasitemia at 0.1 mg/kg/day, ip administered for 4 days starting from 4 hrs post infection and measured on day 5 by giemsa staining based analysis; type: functional, organism-based; conditions: time 5.0 day
[24] = tested on: Plasmodium vinckei petteri; assay: Antiplasmodial activity Plasmodium vinckei petteri infected in female Swiss mouse model assessed as reduction in parasitemia at 1 mg/kg/day, ip administered for 4 days starting from 4 hrs post infection and measured on day 5 by giemsa staining based analysis relative to control; type: functional; parameters: scale not given: the % may be the effect or the level left; conditions: time 5 day
[25] = tested on: Plasmodium vinckei petteri; assay: Antiplasmodial activity Plasmodium vinckei petteri infected in female Swiss mouse model assessed as reduction in parasitemia at 10 mg/kg/day, ip administered for 4 days starting from 4 hrs post infection and measured on day 5 by giemsa staining based analysis; type: functional, organism-based; conditions: time 5.0 day
[26] = tested on: Plasmodium vinckei petteri; assay: Antiplasmodial activity Plasmodium vinckei petteri infected in female Swiss mouse model assessed as reduction in parasitemia at 10 mg/kg/day, ip administered for 4 days starting from 4 hrs post infection and measured on day 30 by giemsa staining based analysis; type: functional, organism-based; conditions: time 30.0 day
[27] = tested on: Plasmodium vinckei petteri; assay: Antiplasmodial activity Plasmodium vinckei petteri infected in female Swiss mouse model assessed as reduction in parasitemia administered intraperitoneally for 4 days starting from 4 hrs post infection and measured on day 30; type: functional; conditions: 720 h, route ip, time 30 day
[28] = Toxicity in female Swiss mouse model infected with Plasmodium vinckei petteri assessed as clinical signs at 0.1 to 10 mg/kg/day, ip administered for 4 days and measured after 30 days; type: organism-based; conditions: in vivo, 720 h, dose 0.1-10 mg/kg/day, time 30 day
[29] = tested on: Plasmodium vinckei petteri; assay: Antiplasmodial activity Plasmodium vinckei petteri infected in female Swiss mouse model assessed as reduction in parasitemia at 25 mg/kg/day, po administered for 4 days starting from 4 hrs post infection and measured on day 5 by giemsa staining based analysis relative to control; type: functional; parameters: scale not given: the % may be the effect or the level left; conditions: time 5 day
[30] = tested on: Plasmodium vinckei petteri; assay: Antiplasmodial activity Plasmodium vinckei petteri infected in female Swiss mouse model assessed as reduction in parasitemia administered orally for 4 days starting from 4 hrs post infection and measured on day 30; type: functional; conditions: 720 h, route po, time 30 day
[31] = tested on: Heme; assay: Inhibition of heme polymerization in acetate buffer at pH 5 assessed as reduction in beta-hematin formation at 1.2 molar ratio of drug to hemin incubated for 18 hrs by infrared spectroscopic analysis relative to control
[32] = Stability in human plasma assessed as parent compound remaining at 1 uM measured after 2 hrs by LC-MS/MS analysis; type: ADME, cell-free; conditions: read-out: Stability
[33] = Thermal stability at 60 degreeC incubated for 2 months; type: physicochemical; conditions: 1460 h
[34] = tested on: Plasmodium falciparum; assay: Antiplasmodial activity against synchronized ring stage artemisinin-resistant Plasmodium falciparum F32 assessed as decrease in parasite recrudescence by measuring time required for parasites to reach initial parasitemia at […] incubated for 54 hrs by recrudescence assay; type: functional
[35] = tested on: Plasmodium falciparum; assay: Antiplasmodial activity against synchronized ring stage artemisinin-resistant Plasmodium falciparum F32 assessed as number of days required to reach 3% initial parasitemia by measuring median recrudescence time at 7 uM incubated for 48 hrs by recrudescence assay; type: functional
[36] = tested on: Plasmodium falciparum; assay: Antiplasmodial activity against synchronized ring stage artemisinin-sensitive Plasmodium falciparum F32 assessed as number of days required to reach 3% initial parasitemia by measuring median recrudescence time at 7 uM incubated for 48 hrs by recrudescence assay; type: functional
[37] = tested on: Plasmodium falciparum; assay: Antiplasmodial activity against synchronized ring stage artemisinin-resistant Plasmodium falciparum F32 assessed as decrease in parasite recrudescence by measuring time required for parasites to reach initial parasitemia at 1 uM incubated for 48 hrs by recrudescence assay; type: functional
[38] = Inhibition of recombinant Plasmodium falciparum 3D7 FIKK8 by enzyme-coupled assay
[39] = tested on: Plasmodium falciparum; assay: Antiplasmodial activity against Plasmodium falciparum; type: functional, organism-based
[40] = tested on: Plasmodium falciparum; assay: Antiplasmodial activity against synchronized ring stage artemisinin-resistant Plasmodium falciparum F32 assessed as number of days required to reach 3% initial parasitemia by measuring median recrudescence time at 1 uM incubated for 48 hrs by recrudescence assay; type: functional
[41] = Metabolic stability in human liver microsomes at 1 uM measured after 1 hrs by LC-MS/MS analysis; type: ADME, Microsome
[42] = Metabolic stability in human liver microsomes assessed as half-life at 1 uM measured after 1 hrs by LC-MS/MS analysis; type: ADME, Microsome

SMILES	IC50 [2] [nM]	IC50 [3] [nM]	IC50 [4] [nM]	IC50 [5] [nM]	IC50 [6] [nM]	CC50 at 48 h [7] [nM]	selectivity ratio [8]	other results
NCCNc1ccnc2cc(Cl)ccc12	54	28	134	354	2300	> 50000	> 925	inhibition [1]: 100%; Activity [9]: inactive; inhibition [10]: inactive; inhibition [11]: inactive
C[C@@H]1CC[C@H]2[C@@H](C)C(=O)O[C@@H]3O[C@@]4(C)CC[C@@H]1[C@]32OO4 [ARTEMISININ]								Time [12]: 10 days; Time [13]: 15 days; ED50 [14]: 4 mg/kg/day; ED50 [15]: 17 mg/kg/day
CCOCCOc1cc(O)c2c(c1)C(=O)c1cc(C)cc(O)c1C2=O	> 10000	> 10000						Activity [9]: inactive; inhibition [16]: 100%
Cc1cc(O)c2c(c1)C(=O)c1cc(OCCN3CCN(c4ccnc5cc(Cl)ccc45)CC3)cc(O)c1C2=O	775					> 10000	> 13	
Clc1ccc2c(N3CCNCC3)ccnc2c1	1310	1400						
CCN(CC)CCCC(C)Nc1ccnc2cc(Cl)ccc12 (configuration not stated) [CHLOROQUINE]						> 50000		Time [17]: >20 days; Time [18]: 8 days
Cc1cc(O)c2c(c1)C(=O)c1cc(OCCOCCNCCNc3ccnc4cc(Cl)ccc34)cc(O)c1C2=O	54	59	33	84	24	12000	222	Time [19]: 23 days; Time [20]: >30 days; Time [21]: 26 days; Time [22]: >22 days; Activity [23]: inactive; Activity [24]: 17%; Activity [25]: Not active; No Detectable Parasitemia Observed; Activity [26]: Active; Recrudescence Not Observed; ED50 [27]: 4 mg/kg/day; Activity [28]: Non-toxic; Activity [29]: 44%; ED50 [30]: ~25 mg/kg/day; inhibition [31]: 100%; remaining at 2 h, 1 µM [32]: 100%; Stability [33]: Stable
Clc1ccc([C@@H](c2ccccc2)N2CCNCC2)cc1	> 10000	6000			9000	20000	< 2	Activity [9]: inactive; inhibition [10]: inactive; inhibition [11]: inactive
C[C@H]1[C@@H](O)O[C@@H]2O[C@@]3(C)CC[C@H]4[C@H](C)CC[C@@H]1[C@@]24OO3 [ARTENIMOL]		2.2	2.5	2.6	2.4	30000	12000	Time [34]: 8 days
O=C1C(O)=C([C@H]2CC[C@H](c3ccc(Cl)cc3)CC2)C(=O)c2ccccc21 [ATOVAQUONE]	1.9		0.7	1	4700	7000	3700	Time [35]: 16 days; Time [36]: 13 days; Time [37]: 14 days; Time [22]: 20 days
Cc1cc(O)c2c(c1)C(=O)c1cc(OCCOCCN3CCN(c4ccnc5cc(Cl)ccc45)CC3)cc(O)c1C2=O	825					12000	15	
Cc1cc(O)c2c(c1)C(=O)c1cc(O)cc(O)c1C2=O [EMODIN]	> 50000					34000	< 0.7	IC50 [38]: 2000 nM; IC50 [39]: > 10000 nM
Clc1ccc([C@@H](c2ccccc2)N2CCN(CCNc3ccnc4cc(Cl)ccc34)CC2)cc1	101	75	33	53	9000	14000	140	Time [40]: 12 days; Time [20]: 11 days; Time [22]: 7 days; inhibition [10]: 100%; remaining at 2 h, 1 µM [32]: 100%; Stability [41]: Stable; half-life at 1 µM [42]: 46 min; Stability [33]: Stable
